Test results published in patent publication US4281121A, “1,3,4-Thiadiazole-2-carboxylic acid derivatives, process for making the same and fungicidal and nematocidal compositions containing same” (Schering Aktiengesellschaft, priority 1978, dated 1981).
Read-outs that look alike come from different tables or passages of the source.

Columns and labels:
Botrytis cinerea = assay: Inhibition of fungus in a nutrient solution: Botrytis cinerea; format: cell-based; conditions: 6 days at 21-23° C.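 Further: 0 means no fungus growth and higher grades mean more surface covered.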
Ustilago nuda tritici = assay: Treatment of wheat seeds in open field tests against Ustilago nuda tritici; format: in vivo; conditions: winter wheat; 100 g/100 kg seeds; eight months
Method: (§1) Treatment of wheat and barley seeds in open field tests against Ustilago nuda
(§2) Winter wheat seeds which had been infested with the smut cause Ustilago nuda tritici and winter barley seeds infested with Ustilago nuda nuda were treated with the agents listed in the table below and were seeded at seeding time in open fields. As a control untreated seeds were likewise included in the seed. After eight months the affected heads were counted for each test group and their proportion was calculated in order to find the fungicidal activity by the following formula: [formula]
(§3) The active compounds were employed in the form of 20% concentration powder compositions.

Fusarium nivale = assay: Treatment of rye seeds against Fusarium nivale; format: in vivo; conditions: 100 g/100 kg; about 4 weeks
Tilletia caries = assay: Seed treatment in open field tests regarding infestation by Tilletia caries (oats); format: in vivo
Fusarium avenaceum [1] = assay: Inhibition of fungus in a nutrient solution: Fusarium avenaceum; format: cell-based; conditions: 6 days at 21-23° C.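 Further: 0 means no fungus growth and higher grades mean more surface covered.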
Outline: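 Grape juice/water (1:1) nutrient solution mixed with powdered test agent, then inoculated with conidia. Surface fungal growth scored on a 0–5 scale after 6 days at 21–23 °C.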

Ustilago nuda nuda = assay: Treatment of barley seeds in open field tests against Ustilago nuda nuda; format: in vivo; conditions: winter barley; 100 g/100 kg seeds; eight months
Method: as §1, §2, §3

[2] = system: Helminthosporium gramineum; assay: Seed treatment in open field tests for infestation by Helminthosporium gramineum (barley); format: in vivo
Method: Seed treatment in open field tests for infestation by Helminthosporium gramineum
The active agents were used in the form of pulverulent compositions. After about 8 months in case of winter barley and after about 3 months in case of summer barley the infested plants were counted and the activity was calculated by the formula [formula]

Venturia inaequalis = assay: Prophylactic leaf treatment of apples in open field test against Venturia inaequalis; format: in vivo; conditions: 3 weeks
Penicillium digitatum = assay: Inhibition of fungus in a nutrient solution: Penicillium digitatum; format: cell-based; conditions: 6 days at 21-23° C.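 Further: 0 means no fungus growth and higher grades mean more surface covered.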
Ustilago avenae = assay: Oat seed treatment for Ustilago avenae; format: in vivo; conditions: 100 g active agent/100 kg; 10 weeks
Piricularia oryzae = format: in vivo; conditions: 5 days
Alternaria solani = assay: Inhibition of fungus in a nutrient solution: Alternaria solani; format: cell-based; conditions: 6 days at 21-23° C.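 Further: 0 means no fungus growth and higher grades mean more surface covered.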
Helminthosporium gram = conditions: about 5 weeks
Method: Treatment of barley seeds infested with Helminthosporium gram
After emergence, the plants were subjected to illumination for 12 hours per day. After about 5 weeks the infested plants were counted and the total number of plants for each test were also counted. The active agents tested were used as pulverulent compositions.

Pythium ultimum = assay: Threshold concentration test for use of the compounds against Pythium ultimum (infested soil, garden peas); format: in vivo; parameters: key to root evaluation (1-4): 4: white roots without fungous necrosis; 3: white roots, minor fungous necrosis; 2: brown roots, already more pronounced fungous necrosis; 1: heavy fungous necrosis, roots rotted; conditions: for root evaluation (1-4): 3 weeks; for number of sound peas: 20 grains per dish, 3 weeks at 20-24° C.
Outline: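 Garden pea seeds, 20 per dish, went straight into Pythium ultimum-infested soil into which 20% pulverulent formulations had been uniformly blended. Sound plants counted and roots rated 1–4 after three weeks of hothouse growth at 20–24 °C.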

Fusarium avenaceum [3] = assay: Threshold concentration test in case of Fusarium avenaceum (infested soil, garden peas); format: in vivo; conditions: for number of sound peas: 20 grains per dish, 18 days at 20-24° C.; for root evaluation (1-4): 18 days
Outline: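 Soil heavily infested with Fusarium avenaceum was mixed uniformly with a 20% powder formulation of active agent, then sown immediately with 20 garden pea seeds ('Wunder von Kelvedon') per dish. After 18 days in a greenhouse at 20° to 24° C., sound plants were counted and roots scored on a 1–4 scale.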

[4] = summer barley, 50 g active agent/100 kg barley, about 3 months
[5] = summer barley, 100 g active agent/100 kg barley, about 3 months
[6] = winter barley, 75 g active agent/100 kg barley, about 8 months
[7] = winter barley, 100 g active agent/100 kg barley, about 8 months
[8] = concentration of active agent 0.005 (in gram)
[9] = concentration of active agent 0.025 (in gram)
[10] = concentration of active agent 0.1 (percentages)

Row | SMILES | fungus development on the surface of the nutrient solution (0-5) (Botrytis cinerea; 0.002%) | fungus development on the surface of the nutrient solution (0-5) (Botrytis cinerea; 0.004%) | % activity (Ustilago nuda tritici) [%] | fungus development on the surface of the nutrient solution (0-5) (Fusarium avenaceum [1]; 0.004%) | % activity (Ustilago nuda nuda) [%] | % activity [2, 4] [%] | % activity [2, 5] [%] | % activity [2, 6] [%] | % activity [2, 7] [%] | % activity (Venturia inaequalis; [8]) [%] | % activity (Venturia inaequalis; [9]) [%] | fungus development on the surface of the nutrient solution (0-5) (Penicillium digitatum; 0.002%) | fungus development on the surface of the nutrient solution (0-5) (Penicillium digitatum; 0.004%) | % activity (Ustilago avenae) [%] | % activity (Piricularia oryzae; [10]) [%] | fungus development on the surface of the nutrient solution (0-5) (Alternaria solani; 0.002%) | fungus development on the surface of the nutrient solution (0-5) (Alternaria solani; 0.004%) | % activity (Helminthosporium gram; 20 g active agent per 100 kg) [%] | % activity (Helminthosporium gram; 50 g active agent per 100 kg) [%] | root evaluation (1-4) (Pythium ultimum; 20 mg/l soil) | other results
1 | CC(C)CS(=O)(=O)c1nnc(C(N)=O)s1 [5-isobutylsulfonyl-1,3,4-thiadiazole-2-carboxamide] | 2 (5 to 10% of the surface covered by the fungus turf) | 1 | 75 | 0 | 79 | 99.5 | 100 | 100 | 100 | 87 | 95 | 1 | 0 | 87 | 90 | 0 | 0 | 60 | 87 | 1 | % activity (Fusarium nivale): 99.2%; % activity (Tilletia caries; summer oats, 50 g active agent/100 kg, about 4 months): 99%; % activity ([2]; winter barley, 50 g active agent/100 kg barley, about 8 months): 100%; % activity (Piricularia oryzae; concentration of active agent 0.02 (percentages)): 65%; number of sound peas (Pythium ultimum; 20 mg/l soil): 15; root evaluation (1-4) (Pythium ultimum; 40 mg/l soil): 4; number of sound peas (Pythium ultimum; 40 mg/l soil): 18; root evaluation (1-4) (Pythium ultimum; 80 mg/l soil): 4; number of sound peas (Pythium ultimum; 80 mg/l soil): 18
2 | CC(C)S(=O)(=O)c1nnc(C#N)s1 [5-isopropylsulfonyl-1,3,4-thiadiazole-2-carbonitrile] | 1 | 0 | 70 | 0 | 93 | 99.8 | 100 | 99 | 100 | 97 | 100 | 0 | 0 | 97 | 94 | 0 | 0 | 86 | 97 | 2 | % activity (Tilletia caries; winter oats, 100 g active agent/100 kg, about 9 months): 100%; fungus development on the surface of the nutrient solution (0-5) (Fusarium avenaceum [1]; 0.002%): 0; % activity ([2]; summer barley, 25 g active agent/100 kg barley, about 3 months): 100%; number of sound peas (Fusarium avenaceum [3]; 25 mg/l soil): 20; root evaluation (1-4) (Fusarium avenaceum [3]; 25 mg/l soil): 4; number of sound peas (Fusarium avenaceum [3]; 50 mg/l soil): 20; root evaluation (1-4) (Fusarium avenaceum [3]; 50 mg/l soil): 4; number of sound peas (Fusarium avenaceum [3]; 100 mg/l soil): 19; root evaluation (1-4) (Fusarium avenaceum [3]; 100 mg/l soil): 4; number of sound peas (Pythium ultimum; 20 mg/l soil): 18; root evaluation (1-4) (Pythium ultimum; 40 mg/l soil): 4; number of sound peas (Pythium ultimum; 40 mg/l soil): 20; root evaluation (1-4) (Pythium ultimum; 80 mg/l soil): 4; number of sound peas (Pythium ultimum; 80 mg/l soil): 19
